In data set [1] the test system is uterine muscle isolated from pregnant rats. The experiment in a line: Spontaneous contractions of uterine muscle isolated from pregnant rats (organ bath). The data set is classed as cell-based. Conditions: pregnant rat uterine muscle, mean ± standard error, 10 samples. The protocol:
The experimental operation of this study was as reported by T. Kawarabayashi et al.^1 After each SD-strain rat on Day 21 of pregnancy were exsanguinated to death, the uterus was isolated to prepare up to 8 myometrial strips (about 4 mm×10 mm) in the direction of the longitudinal muscle, with the adhesion to the placenta being avoided.
Each myometrial strip was suspended in an organ bath containing 10 mL of a Locke-Ringer solution at 37° C. (aerated with 95% O2+5% CO2 gas) with a load of about 1.0 g. After the amplitude and frequency of the muscular spontaneous contractions became stable, distilled water was added. Five minutes later, the test, control, or positive control substance was added cumulatively with intervals of 5 minutes. The myometrial contractile force was delivered to a strain pressure amplifier through a force displacement transducer and recorded on a Rectigraph.
Considering the sum of the uterine contraction during 5 minutes after the addition of distilled water as 100%, the response rate to each concentration of the test, control, or positive control substance was calculated from the sum of the uterine contraction after each was added. Variable points (peaks) with amplitude (tension) of 0.2 g or lower were excluded from analysis. Samples showing any of the following events were not used for the study or excluded from analysis.
Microsoft® Excel 2000 (Microsoft Corp.) was used to sum up and analyze data and prepare tables and figures. Using a concentration-response curve obtained for each sample (X axis: log value of the concentration of the drug added, Y axis: response rate), a negative log value (pD2) of the concentration that inhibited the uterine contraction by 50% (EC50) was calculated from a straight line that connects the 2 concentrations above and below 50%, and converted to EC50.

Data set [2] shares this test system. The experiment in a line: PG F2α-induced contraction of uterine muscle isolated from pregnant rats. Format: cell-based, rat. To be noted: Rattus norvegicus, contraction induced with 5 μg/mL of PG F2α, mean ± standard error of 10 samples. The protocol:
After SD-strain rats on Day 17 of pregnancy were exsanguinated to death, the uterus was isolated to prepare up to 8 myometrial strips (about 4 mm×10 mm) per animal in the direction of the longitudinal muscle while avoiding the adhesion to the placenta. Each strip was suspended in an organ bath containing 10 mL of a modified Locke-Ringer solution at […] (aerated with 95% O2+5% CO2 gas) with a load of about 1.0 g. After the suspended sample became stable for static tension, 5 μg/mL of PG F2α or 1 mU/mL of oxytocin was added to induce contraction. After the sample was allowed to stand for at least 30 minutes to confirm stable rhythmic contraction for frequency and amplitude, the test, control, or positive control substance solution was added cumulatively at intervals of 5 minutes. After the treatment was completed, 1×10^−5 mol/L of forskolin was added to obtain maximal relaxation. The contractile force of the uterine sample was delivered via a force displacement transducer to a strain pressure amplifier and recorded on a Rectigraph.
Considering the sum of the uterine contraction for 5 minutes before treatment as 100%, the response rate to each concentration of the test, control, or positive control substance solution was calculated from the sum of uterine contraction after treatment for both PG F2α and oxytocin induced contraction. Then, the response rates obtained were used to prepare a concentration-response curve for each sample. The maximum relaxation obtained by adding forskolin was considered as a baseline. Variable points (peaks) with amplitude (tension) of […] or lower were excluded from analysis. Samples showing any of the following events were not used for the study or excluded from analysis.
Microsoft® Excel 2000 (Microsoft Corp.) was used to sum up and calculate data and prepare tables and figures. Using a concentration-response curve prepared for each sample (X axis: log value of the concentration of the substance added, Y axis: response rate), a negative log value (pEC50) of the concentration that inhibited the uterine contraction by 50% (EC50) was calculated from a straight line connecting the 2 concentrations just above and below 50%, and then converted to EC50 (unit: mol/L).

Data set [3] relates to uterine activity of anesthetized pregnant rats. The data set can be described thus: Uterine motility of anesthetized pregnant rats (balloon method). Format: in vivo, rat. The protocol: Rats were anesthetized with urethane, and experiments were conducted based on balloon method. Uterine activity and mean blood pressure of dam were led to a pressure amplifier via a pressure transducer. As for heart rate, pulse waves were led to tachometer. Recti-graphs were used for recording. The test substance, control substance, or positive control substance was administered intravenously and cumulatively every 15 minutes, while doses were increased gradually.

Data set [4] deals with uterine muscles isolated from pregnant rabbits. The experiment in a line: Spontaneous contractions of isolated uterine muscles of pregnant rabbits (organ bath). Format: cell-based, rabbit. The protocol: Uterine muscles of pregnant rabbits were isolated, and experiments were conducted based on organ-bath method. After specimens of uterine muscles were suspended and spontaneous contractions was stabilized, the test substance, control substance or positive control substance was administered every 10 min, while doses were increased gradually. Efficacy of drugs was evaluated by comparing the sum of uterine contraction for 10 min before and after administration of drugs, defining the former as 100%.

Data set [5] concerns women with primary dysmenorrhea. The experiment in a line: Myometrial activity, uterine blood flow and lower abdominal pain in women with primary dysmenorrhea (intravenous MN-221). The data set is classed as in vivo, human. The protocol: Myometrial activity and uterine blood flow is recorded in a group of women, aged 16 to 39 years. All have regular cycles of 25 to 32 days. They suffer regularly from menstrual pain. All are so disabled by the condition that they have to abstain from work for one to three days a month, even if they use non-narcotic analgesics. At least during the first menstrual day, all have a continuous lower abdominal pain, which varies in intensity; most of them also complain of symptoms such as nausea and vomiting. The symptoms during the recordings conform to those experienced during previous menstruations.
In the menstrual cycle preceding the investigation, all women have biphasic basal body temperature recordings, and plasma oestradiol and progesterone concentrations which are higher in the middle of the luteal phase than on the first menstrual day. Recordings are made; each begin within 24 hours of the onset of menstruation lasting for more than three hours.
Myometrial activity is recorded as changes in intrauterine pressure by a microtransducer catheter. The transducer is connected to an amplifier and a potentiometer recorder. Uterine blood flow is recorded by a technique based on measuring thermodilution from a heated thermistor to blood flow in the surrounding tissue. The thermistor is placed in contact with the endometrium of the fundus and, consequently, the recordings mainly reflect the blood flow at that site. The thermistor and the pressure transducer are inserted through the cervical canal into the uterus. The receptors are kept in position by the rigidity of the transducer catheter and by use of sterile paste around the catheters in the vagina.
The patients are asked to report all symptoms during recordings, including changes in character and intensity of the menstrual pain. MN-221 is given as a single bolus intravenous injection of 0.30 mg, 0.60 mg, or 0.90 mg. Before and after the administration of MN-221, pulse rate and arterial blood pressure (measured by auscultation) are registered at 5-minute intervals.

Setting [6] is: inhibition of uterine motility, anesthetized pregnant rats.
The mark [7] stands for this setting: single bolus intravenous injection of 0.30 mg, 0.60 mg, or 0.90 mg.

On to `CN(C)C(=O)COc1ccc2c(c1)C[C@@H](NC[C@H](O)c1ccc(O)c(CCO)c1)CC2` [MN-221, (−)-bis(2-{[(2S)-2-({(2R)-2-hydroxy-2-[4-hydroxy-3-(2-hydroxyethyl)phenyl]ethyl}amino)-1,2,3,4-tetrahydronaphthalen-7-yl]oxy}-N,N-dimethyl-acetamide) monosulfate], for which the EC50 in data set [1] (read-out: EC50) was 1.01 ± 0.27 nM; in data set [1] (read-out: pD2 (converted)) it was 0.692 nM; in data set [2] (read-out: EC50), 66.4 ± 19.3 nM; in data set [2] (read-out: pEC50 (converted)) it was 51.3 nM; in data set [4] (Oryctolagus cuniculus, spontaneous contractions, pregnant rabbit uterine muscles, read-out: pD2 values (converted)), 1.91 nM. Also, the “inhibition of uterine motility” value in data set [3] (anesthetized pregnant rats, intravenous cumulative dosing) is recorded as “inhibited uterine motility dose-dependently”. Further, in data set [3] (setting [6]), the “potency relative to HSR-81” value is given as “approximately 4 times”. In addition, in data set [3] (setting [6]), the “potency relative to ritodrine” value is “approximately 400 times”. For the same compound, the “potency relative to terbutaline” value in data set [3] (setting [6]) is recorded as “approximately 5.5 times”. In addition, the ED30 values in data set [3] (uterine motility, intravenous cumulative dosing every 15 minutes, urethane-anesthetized pregnant rats) turned out to be 0.13 µg/kg/min. Further, in data set [4] (as worded in Example 6 (spontaneous contraction study)), the “inhibitory effect against oxytocin-induced contractions of isolated uterine muscles” value was “demonstrated inhibitory effect”. Further, in data set [4] (pregnant rabbit uterine muscles), the “inhibitory effect against spontaneous contractions of uterine muscles, comparison” value was “clearly stronger than that of HSR-81, ritodrine and terbutaline”. In addition, the pain relief result in data set [5] (after injection or infusion) is listed as “pain relief within one minute after injection”. For the same compound, the “increase in heart rate, blood pressure, palpitations, tremors, and/or flushes” value in data set [5] (intravenous, all subjects) is reported as “substantially no increase in heart rate, blood pressure, palpitations, tremors, and/or flushes”. In data set [5] (single bolus intravenous injection), the duration of effect result is “lasts for few hours”. Also, in data set [5] (setting [7]), the “local uterine blood flow” value is listed as “generally increases”. The myometrial activity result in data set [5] (setting [7]) is recorded as “decreases the myometrial activity”.

Source of the values: patent US20120035265A1, “COMPOSITIONS, METHODS, AND DEVICES FOR THE TREATMENT OF DYSMENORRHEA” (MediciNova, Inc., priority 2010, published 2012).
